# Laboratory results reported in US11331301B2, “Compositions and methods for treating cancer” (The State of Israel, Ministry of Agriculture & Rural …, priority 2017, dated 2022).
# Key:
# Format in all cases: cell-based
# HCT116 cells = experiment: Cytotoxic activity with CB1, CB2 and GPR55 receptor antagonists, Alamar Blue; conditions: THCA 0.12 mM
# Experimental: FIGS. 12A-C depict the determination of HCT116 cell viability using Alamar Blue fluorescence (Resazurin assay) as a function of cytotoxic effect. HCT116 cells were seeded (50,000 per well) in triplicate in 500 μL growing media and incubated for 24 h at 37° C. in a humidified 5% CO2-95% air atmosphere. […] Non-treated are the cells without TNF-α and treatments. Relative fluorescence at the excitation/emission of 544/590 nm was measured. Values were calculated as percentage of live cells relative to the non-treated (cells without TNF-α and treatments) control after reducing the autofluorescence of Alamar Blue without cells.
# FIG. 12D depicts determination of HCT116 cell viability using Alamar Blue fluorescence (resazurin assay) as a function of cytotoxic effect. HCT116 cells were seeded (50,000 per well) in triplicate in 500 μL growing media and incubated for 24 hours at 37° C. in a humidified 5% CO2-95% air atmosphere. […] Treatments with F7, F1-F9, and combination of fractions without antagonists served as a positive control (Con). Non-treated are the cells without TNF-α and treatments. […] Relative fluorescence at the excitation/emission of 544/590 nm was measured. Values were calculated as percentage of live cells relative to the non-treated (cells without TNF-α and treatments) control after reducing the autofluorescence of Alamar Blue without cells. […]
# CB1 = experiment: Relative gene expression by qPCR after TNF-α; conditions: HCT-116; overnight TNF-α; versus GAPDH, 2-ΔΔCT; treated versus non-treated cells
# Text: (§1) Transcripts for CB1, CB2 and GPR55 were detected by qPCR in HCT116 cells.
# CB2 = experiment: Relative gene expression by qPCR after TNF-α; conditions: HCT-116; overnight TNF-α; versus GAPDH, 2-ΔΔCT; treated versus non-treated cells
# Text: as §1
# GPR55 = experiment: Relative gene expression by qPCR after TNF-α; conditions: HCT-116; overnight TNF-α; versus GAPDH, 2-ΔΔCT; treated versus non-treated cells
# Text: as §1
Compound,"effect of CB2 antagonist (SR144528) on cytotoxic activity (HCT116 cells; C2F 0.2 mg/mL, F7 0.08 mg/mL)",effect of CB1 antagonist (Rimonabant) on cytotoxic activity (HCT116 cells),Mean relative expression of CB1 (CB1),Mean relative expression of CB2 (CB2),Mean relative expression of GPR55 (GPR55)
"CCCCCc1cc2c(c(O)c1C(=O)O)[C@@H]1C=C(C)CC[C@H]1C(C)(C)O2 [THCA, tetrahydrocannabinolic acid]",significant reduction in cytotoxic activity,significant reduction in cell cytotoxic activities,–,–,–
TNF-α,–,–,1.31,5.84,5.26
